Test results from patent publication US20130177546A1, “METHOD FOR ENHANCING EFFICACY AND SELECTIVITY OF CANCER CELL KILLING BY DNA DAMAGING AGENTS” (MAINE INSTITUTE FOR HUMAN GENETICS AND HEALTH, priority 2011, published 2013).

Tests used:
Assay type in all cases: cell-based
[1] = test system: p21^WAF1/CIP1; assay: p21 expression in Dox-treated MCF7 cells (SDS-PAGE, immunoblot); settings: MCF7 cells following Dox treatment
Experimental: The results from this example are shown in FIG. 2. a, Doxorubicin (Dox) promotes PCNA methyl esterification in MCF7 cells. Whole cell extracts (WCE) from cultures treated with Dox ([…]) were resolved by 2D-PAGE followed by PCNA immunoblotting (IB). The basic-shifted PCNA isoform (ME-PCNA) is identified with an arrow. b, PCNA-dependent methyltransferase activity is altered following Dox treatment. Dox treated MCF7 WCE were assayed for PCNA-dependent activity in triplicate using the vapour diffusion assay, and average activities are presented ±S.E.M. Significance was determined using a two-tailed t-test. c, Dox induces p21 expression in MCF7 cells. Extracts were separated by SDS-PAGE and immunoblotted for p21^Waf1/Cip1. d, p21 binding promotes PCNA methyl esterification. Untreated MCF7 extracts were incubated with GST, GST-p21 (full-length), and GST-p21(PIP) proteins bound to glutathione Sepharose for 2 h at 4° C. prior to 2D-PAGE and PCNA immunoblotting. e The p21-induced basic shift is a result of PCNA methyl esterification. p21(PIP) peptide was covalently coupled to CH-Sepharose and used to affinity purify PCNA from MCF7 whole cell extracts. Purified fractions were separated by 2D-PAGE and stained with colloidal Coomassie blue. Spots were excised from the gel, digested with trypsin, and analyzed by LC-MS/MS. […]

[2] = test system: SK-Br-3 (p53-mutant) cells; assay: Clonogenic survival assay after DNA damage, SK-Br-3 cells expressing Arm1 or control shRNA; settings: for survival: 0.5 mM DOX; for cells surviving: 0.0025% MMS
Experimental: (§1) MCF7 and SK-Br-3 cells were obtained from ATCC and maintained in DMEM or McCoys 5A supplemented with 10% FBS and antibiotics at 37° C., 5% CO2. A human Flag-tagged Arm1, Rev1, and p21 expression construct (Origene) were transiently transfected into SK-Br-3 cells with Fugene 6 (Roche) and extracts generated after 24 h. Lentiviral shRNA particles were obtained from Open Biosystems and stably expressing clones selected with puromycin and confirmed by GFP expression and Q-PCR (FIG. 10). […] Surviving colonies were stained with methylene blue and counted 2 weeks after treatments.
(§2) The results from this example are shown in FIG. 3. a, Arm1 promotes PCNA methyl esterification following DNA damage. PCNA was analyzed by 2D-PAGE immunoblotting in SK-Br-3 and MCF7 cells expressing Arm1 or non-targeting (control) shRNA in the absence of DNA damage or 4 h following Dox treatment or UV irradiation. b, PCNA-dependent methyltransferase activities are alter in shRNA expressing SK-Br-3 and MCF7 cells. WCE were assayed for PCNA-dependent carboxyl methyltransferase activity in the presence of His-PCNA ([…]) and average activities shown (±S.E.M.). Significance was determined using a two-tailed t-test. c, DNA damage sensitivity in Arm1 knockdown cells is related to p53 status. MCF7 (p53 wild-type) and SK-Br-3 (p53-mutant) cells were exposed to increasing levels of Dox and UV and survival determined by clonogenic survival. Average results from three independent experiments are presented ±SD. d, Arm1 knockdown promotes DNA repair. DNA repair rates were determined in shRNA expressing SK-Br-3 and MCF7 cells using host cell reactivation assay. Cells were transfected with UV-irradiated reporter plasmids and average repair rates were determined after 24 h. Average results from independent experiments are presented (±S.E.M.). Significance was determined with a two-tailed t-test.
In addition to PCNA modification in knock-down cells, we examined cell survival following DNA damage (FIG. 4b). […] In MCF7 cells with knocked-down Arm1 expression 47% of cells survived 0.5 mM DOX compared to 15% survival in the control cells (FIG. 4b). Similar results were consistently observed in response to UV with 39% of the Arm1 knock-down cells surviving 25 J/m^2 compared to 19% in the control. […] Additionally, because ˜50% of tumours harbour p53 mutations and knock-down of Arm1 expression in p53-mutant breast tumours appeared to sensitize the cells to DNA damage, inhibition of Arm1 may ultimately allow us to more effectively target tumour cells.

[3] = test system: MCF7 (p53 wild-type) cells; assay: Clonogenic survival assay after DNA damage, MCF7 cells expressing Arm1 or control shRNA
Experimental: as §1, §2
In addition to PCNA modification in knock-down cells, we examined cell survival following DNA damage (FIG. 4b). […]

Structure (SMILES): COc1cccc2c1C(=O)c1c(O)c3c(c(O)c1C2=O)C[C@@](O)(C(=O)CO)C[C@@H]3O[C@H]1C[C@H](N)[C@H](O)[C@H](C)O1 [DOX, doxorubicin]
- increased expression of p21^WAF1/CIP1 [1]: > 27 fold
- survival ([2]; SK-Br-3 cells with knock-down of Arm1 expression): 3%
- survival ([2]; SK-Br-3 control cells): 18%
- cells survived ([3]; MCF7 cells with knocked-down Arm1 expression, 0.5 mM DOX): 47%
- survival ([3]; MCF7 control cells, 0.5 mM DOX): 15%

Structure (SMILES): COS(C)(=O)=O [MMS]
- cells surviving ([2]; SK-Br-3 Arm1 knock-down cells): 4%
- cells surviving ([2]; SK-Br-3 control cells): 12%
- survival of Arm1 knock-down cells compared to control cells ([3]; MCF7 Arm1 knock-down cells, response to MMS): enhanced survival
